Experiments:
[1] = system: NCI-H1651 (Lung Adenocarcinoma); assay: combination Emax (second highest fraction inhibited in the dose matrix, 72 h); higher = more inhibition; extreme values may be limits of the assay
Outline: (§1)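 After 24 hours at 37°C and 5% CO2 in 1536-well plates, cells in DMEM/F12 or RPMI plus 10% FBS received two-drug dose matrices for 72 hours. Viability came from CellTiter-Glo 2.0 luminescence and was scaled as inhibition, anchored at 0 by vehicle wells and at 1 by blank wells. Combination Emax is taken as the second-highest inhibition in the matrix, and Bliss excess as the observed combination effect less EA + EB − EA·EB, with EA and EB the single-agent effects.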

WM1552C (Melanoma) = assay: as above
Outline: as §1

HCC70 (Breast Carcinoma) = assay: as above
Outline: as §1

[2] = system: 22RV1 (Prostate Carcinoma); assay: as above
Outline: as §1

[3] = system: JHU-022 (Oral Cavity Carcinoma); assay: as above
Outline: as §1

[4] = system: NCI-H2087 (Lung Adenocarcinoma); assay: as above
Outline: as §1

[5] = system: SW620 (Colorectal Carcinoma); assay: Bliss excess, mean over the matrix (fraction); higher = more synergy
Outline: as §1

[6] = system: SK-HEP-1 (Hepatocellular Carcinoma); assay: as above
Outline: as §1

769-P (Kidney Carcinoma) = assay: as above
Outline: as §1

NB13 (Neuroblastoma) = assay: combination Emax (second highest fraction inhibited in the dose matrix, 72 h); higher = more inhibition; extreme values may be limits of the assay
Outline: as §1
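Wherever Bliss excess, mean over the matrix is given: after 72 h of two-drug dosing.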

SMILES | combination Emax [1] | combination Emax (WM1552C (Melanoma)) | combination Emax (HCC70 (Breast Carcinoma)) | combination Emax [2] | combination Emax [3] | combination Emax [4] | Bliss excess [5] | Bliss excess [6] | Bliss excess (769-P (Kidney Carcinoma)) | combination Emax (NB13 (Neuroblastoma))
O=C(c1cc(Cc2n[nH]c(=O)c3ccccc23)ccc1F)N1CCN(C(=O)C2CC2)CC1 [Olaparib] + CN(CC[C@H](CSC1=CC=CC=C1)NC2=C(C=C(C=C2)S(=O)(=O)NC(=O)C3=CC=C(C=C3)N4CCC(CC4)[C@H](C5=CC=CC=C5C6=CC=C(C=C6)Cl)O)S(=O)(=O)C(F)(F)F)CCO [AZD4320] (first compound max 10 µM, 7x7, partner max 1 µM) | 0.299 | 0.484 | 0.253 | 0.183 | 0.163 | 0.413 | -0.0535 | 0.0491 | -0.0143 | 
C[C@@H]1COCCN1c1cc(C2([S@](C)(=N)=O)CC2)nc(-c2ccnc3[nH]ccc23)n1 [AZD6738] + Nc1ccn([C@@H]2O[C@H](CO)[C@@H](O)C2(F)F)c(=O)n1 [Gemcitabine] (first compound max 10 µM, 7x7, partner max 0.3 µM) | 0.747 | 0.868 | 0.826 | 0.754 | 0.695 | 0.699 | 0.0454 | 0.0557 | -0.0475 | 
Cc1c2c(nn1C)CSCc1cc(n(C)n1)CSc1cc(c3ccccc3c1)OCCCc1c(C(=O)O)n(C)c3c-2c(Cl)ccc13 [AZD5991] + CS(=O)(=O)CCNCc1ccc(-c2ccc3ncnc(Nc4ccc(OCc5cccc(F)c5)c(Cl)c4)c3c2)o1 [Lapatinib] (first compound max 1 µM, 7x7, partner max 10 µM) | 0.307 | 0.693 | 0.995 | 0.55 | 0.705 | 0.275 | -0.043 | 0.0191 | 0.0329 | 0.527
O=C(c1cc(Cc2n[nH]c(=O)c3ccccc23)ccc1F)N1CCN(C(=O)C2CC2)CC1 [Olaparib] + Cc1c2c(nn1C)CSCc1cc(n(C)n1)CSc1cc(c3ccccc3c1)OCCCc1c(C(=O)O)n(C)c3c-2c(Cl)ccc13 [AZD5991] (first compound max 10 µM, 7x7, partner max 1 µM) | 0.293 | 0.856 | 0.879 | 0.519 | 0.0997 | 0.13 | -0.0572 | -0.0101 | 0.0074 | 
C[C@@H]1COCCN1c1cc(C2([S@](C)(=N)=O)CC2)nc(-c2ccnc3[nH]ccc23)n1 [AZD6738] + C1CC(C1)(C(=O)[O-])C(=O)[O-].N.N.[Pt+2] [Carboplatin] (first compound max 10 µM, 7x7, partner max 10 µM) | 0.641 | 0.564 | 0.763 | 0.553 | 0.513 | 0.564 | -0.0461 | -0.0469 | -0.0233 | 0.81
Cc1c2c(nn1C)CSCc1cc(n(C)n1)CSc1cc(c3ccccc3c1)OCCCc1c(C(=O)O)n(C)c3c-2c(Cl)ccc13 [AZD5991] + CC(=O)O[C@H]1C(=O)[C@@]2(C)[C@H]([C@H](OC(=O)c3ccccc3)[C@]3(O)C[C@H](OC(=O)[C@H](O)[C@@H](NC(=O)c4ccccc4)c4ccccc4)C(C)=C1C3(C)C)[C@]1(OC(C)=O)CO[C@@H]1C[C@@H]2O [Paclitaxel] (first compound max 1 µM, 7x7, partner max 3 µM) | 0.912 | 0.989 | 0.973 | 0.912 | 0.371 | 0.554 | 0.0435 | -0.0587 | -0.0044 | 
CS(=O)(=O)CCNCc1ccc(-c2ccc3ncnc(Nc4ccc(OCc5cccc(F)c5)c(Cl)c4)c3c2)o1 [Lapatinib] + Cn1cnc2c(F)c(Nc3ccc(Br)cc3Cl)c(C(=O)NOCCO)cc21 [Selumetinib] (first compound max 10 µM, 7x7, partner max 10 µM) | 0.151 | 0.444 | 0.891 | 0.464 | 0.702 | 0.575 | -0.0193 | -0.0163 | 0.0368 | 0.521
CS(=O)(=O)CCNCc1ccc(-c2ccc3ncnc(Nc4ccc(OCc5cccc(F)c5)c(Cl)c4)c3c2)o1 [Lapatinib] + NC1(c2ccc(-c3nc4ccn5c(=O)[nH]nc5c4cc3-c3ccccc3)cc2)CCC1 [MK-2206] (first compound max 10 µM, 7x7, partner max 10 µM) | 0.442 | 0.767 | 0.923 | 0.835 | 0.663 | 0.293 | -0.0275 | -0.0936 | 0.0372 | 0.952
C=CCn1c(=O)c2cnc(Nc3ccc(N4CCN(C)CC4)cc3)nc2n1-c1cccc(C(C)(C)O)n1 [AZD1775] + Nc1ccn([C@@H]2O[C@H](CO)[C@@H](O)C2(F)F)c(=O)n1 [Gemcitabine] (first compound max 1 µM, partner max 0.3 µM) | 0.762 | 0.72 | 0.513 | 0.744 | 0.617 | 0.6 | 0.0165 | -0.029 |  | 
C=CCn1c(=O)c2cnc(Nc3ccc(N4CCN(C)CC4)cc3)nc2n1-c1cccc(C(C)(C)O)n1 [AZD1775] + CCc1c2c(nc3ccc(O)cc13)-c1cc3c(c(=O)n1C2)COC(=O)[C@]3(O)CC [SN-38] (first compound max 1 µM, partner max 0.3 µM) | 0.86 | 0.611 | 0.537 | 0.732 | 0.783 | 0.941 | -0.0563 | -0.0134 | -0.0084 | 0.853
CN(CCO)CC[C@H](CSc1ccccc1)Nc1ccc(S(=O)(=O)NC(=O)c2ccc(N3CCC([C@@H](O)c4ccccc4-c4ccc(Cl)cc4)CC3)cc2)cc1S(=O)(=O)C(F)(F)F [AZD4320] + CS(=O)(=O)CCNCc1ccc(-c2ccc3ncnc(Nc4ccc(OCc5cccc(F)c5)c(Cl)c4)c3c2)o1 [Lapatinib] (first compound max 1 µM, 7x7, partner max 10 µM) | 0.396 | 0.571 | 0.93 | 0.335 | 0.784 | 0.541 | -0.0116 | -0.0958 | -0.0042 | 0.989
Cc1c2c(nn1C)CSCc1cc(n(C)n1)CSc1cc(c3ccccc3c1)OCCCc1c(C(=O)O)n(C)c3c-2c(Cl)ccc13 [AZD5991] + Nc1ccn([C@@H]2O[C@H](CO)[C@@H](O)C2(F)F)c(=O)n1 [Gemcitabine] (first compound max 1 µM, 7x7, partner max 0.3 µM) | 0.486 | 0.899 | 0.937 | 0.886 | 0.659 | 0.546 | -0.0217 | -0.109 | -0.0637 | 
O=C(c1cc(Cc2n[nH]c(=O)c3ccccc23)ccc1F)N1CCN(C(=O)C2CC2)CC1 [Olaparib] + CC1(C)CCC(CN2CCN(c3ccc(C(=O)NS(=O)(=O)c4ccc(NCC5CCOCC5)c([N+](=O)[O-])c4)c(Oc4cnc5[nH]ccc5c4)c3)CC2)=C(c2ccc(Cl)cc2)C1 [Venetoclax] (first compound max 10 µM, 7x7, partner max 1 µM) | 0.235 | 0.319 | 0.141 | 0.251 | 0.174 | 0.176 | -0.0533 | -0.0619 | 0.0116 | 
C[C@@H](Nc1cc(F)cc(F)c1)c1cc(C(=O)N(C)C)cc2c(=O)cc(N3CCOCC3)oc12 [AZD8186] + C1CN(CCC1(C(=O)N[C@@H](CCO)C2=CC=C(C=C2)Cl)N)C3=NC=NC4=C3C=CN4 [AZD5363] (first compound max 10 µM, 7x7, partner max 10 µM) | 0.112 | 0.339 | 0.732 | 0.546 | 0.494 | 0.195 | -0.0135 | -0.0291 | -0.0459 | 
O=C(c1cc(Cc2n[nH]c(=O)c3ccccc23)ccc1F)N1CCN(C(=O)C2CC2)CC1 [Olaparib] + COc1nnc2ccc(N3CCC(c4ccc(OCCN5CCN(C)C(=O)[C@H]5C)cc4)CC3)nn12 [AZD5153] (first compound max 10 µM, 7x7, partner max 1 µM) | 0.367 | 0.376 | 0.281 | 0.546 | 0.35 | 0.39 | -0.0506 | 0.0116 | -0.0374 | 
C[C@@H](Nc1cc(F)cc(F)c1)c1cc(C(=O)N(C)C)cc2c(=O)cc(N3CCOCC3)oc12 [AZD8186] + CC(=O)c1c(C)c2cnc(Nc3ccc(N4CCNCC4)cn3)nc2n(C2CCCC2)c1=O [Palbociclib] (first compound max 10 µM, 7x7, partner max 10 µM) | 0.17 | 0.352 | 0.575 | 0.563 | 0.512 | 0.24 | 0.0238 | -0.0155 | 0.0354 | 
